Read-outs that look alike come from different tables or passages of the source.
What was measured:
[1] = target: T1, cloned human glucagon receptor (Homo sapiens, UniProt P47871); assay: Glucagon Binding Assay (I); conditions: for IC50: plasma membranes of BHK cells expressing the receptor, 125I-glucagon tracer, read-out: Glu Bd Assay (I) IC50
T1 construct: expressed in transfected cells; plasma membrane preparation
Protocol: Binding of compounds to the glucagon receptor was determined in a competition binding assay using the cloned human glucagon receptor.
Receptor binding was assayed using cloned human receptor (Lok et al., Gene 140, 203-209 (1994)). The receptor inserted in the pLJ6′ expression vector using EcoRI/SSt1 restriction sites (Lok et al.) was expressed in a baby hamster kidney cell line (A3 BHK 570-25).
Plasma membranes were prepared by growing cells to confluence, detaching them from the surface and resuspending the cells in cold buffer (10 mM tris/HCl, pH 7.4 containing 30 mM NaCl, 1 mM dithiothreitol, 5 mg/L leupeptin (Sigma), 5 mg/L pepstatin (Sigma), 100 mg/L bacitracin (Sigma) and 15 mg/L recombinant aprotinin (Novo Nordisk A/S)), homogenization by two 10-s bursts using a Polytron PT 10-35 homogenizer (Kinematica), and centrifugation upon a layer of 41 w/v % sucrose at 95.000×g for 75 min. The white band located between the two layers was diluted in buffer and centrifuged at 40.000×g for 45 min. The precipitate containing the plasma membranes was suspended in buffer and stored at −80° C. until use. Glucagon was iodinated according to the chloramine T method (Hunter and Greenwood, Nature 194, 495 (1962)) and purified using anion exchange chromatography (Jørgensen et al., Hormone and Metab. Res. 4, 223-224 (1972). The specific activity was 460 μCi/μg on the day of iodination. Tracer was stored at −18° C. in aliquots and were used immediately after thawing.
Binding assays were carried out in triplicate in filter microtiter plates (MADV N65, Millipore). The buffer used in this assay was 50 mM HEPES, 5 mM EGTA, 5 mM MgCl2, 0.005% tween 20, pH 7.4. Glucagon was dissolved in 0.05 M HCl, added an equal amount (w/w) of HSA and freeze-dried. On the day of use, it was dissolved in water and diluted in buffer to the desired concentrations.
Test compounds were dissolved and diluted in DMSO. 140 μL buffer, 25 μL glucagon or buffer, and 10 μL DMSO or test compound were added to each well. Tracer (50.000 cpm) was diluted in buffer and 25 μL were added to each well. 1-4 μg freshly thawed plasma membrane protein diluted in buffer was then added in aliquots of 25 μL to each well. Plates were incubated at 30° C. for 2 hours. Non-specific binding was determined with 10^−6 M of glucagon. Bound tracer and unbound tracer were then separated by vacuum filtration (Millipore vacuum manifold). The plates were washed with 2×100 μL buffer/well. The plates were air dried for a couple of hours, whereupon the filters were separated from the plates using a Millipore Puncher. The filters were counted in a gamma counter.

[2] = target: T1, cloned human glucagon receptor; assay: Glucagon Binding Assay (II); conditions: plasma membranes of BHK cells expressing the receptor; read-out: Glu Bd Assay (II) IC50
human glucagon receptor = target: T2, human glucagon receptor (Homo sapiens, UniProt P47871); assay: Glucagon Binding Assay (III); conditions: BHK cell membranes, WGA SPA beads, 125I-glucagon
T2 construct: expressed in transfected cells; host or cells: BHK (baby hamster kidney) cells
Outline: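 Non-specific binding was set with 500 nM glucagon in this SPA-type binding assay using WGA beads. The receptor source was a membrane preparation, kept on ice or at 4 °C, from BHK cells transfected with the human receptor. Scintillation counts were taken after 4 hours of shaking and 8–48 hours of settling.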

[3] = read-out: Glu Bd Assay (III) IC50

T2 sequence (P47871 26-477): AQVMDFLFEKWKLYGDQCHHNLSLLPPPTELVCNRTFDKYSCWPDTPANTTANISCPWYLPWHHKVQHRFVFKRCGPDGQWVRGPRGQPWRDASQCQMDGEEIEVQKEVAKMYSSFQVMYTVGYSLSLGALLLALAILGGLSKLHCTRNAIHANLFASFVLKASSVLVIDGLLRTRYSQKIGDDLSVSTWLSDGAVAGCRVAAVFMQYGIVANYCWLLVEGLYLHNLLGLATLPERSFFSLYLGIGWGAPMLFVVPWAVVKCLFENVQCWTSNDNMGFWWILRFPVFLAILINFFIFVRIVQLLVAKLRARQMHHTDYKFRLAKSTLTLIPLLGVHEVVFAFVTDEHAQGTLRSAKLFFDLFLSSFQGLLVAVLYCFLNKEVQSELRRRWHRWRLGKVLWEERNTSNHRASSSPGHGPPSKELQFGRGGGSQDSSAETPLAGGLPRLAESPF
T1 sequence (P47871 26-477): as above

Structure (SMILES) | Glu Bd Assay (I) Effect, 100-Residual binding (%) at 1 μM [1] | IC50 [1] | further results
CCCCC(CC)CN(Cc1ccc(C(=O)NCCC(=O)O)cc1)C(=O)/C=C/c1c(Cl)cccc1Cl (centres unmarked) [Example 5, 3-(4-{[N-[3-(2,6-Dichlorophenyl)acryloyl]-N-(2-ethylhexyl)amino]methyl}benzoylamino)propionic acid] | 31.1% | 800 nM | –
O=C(O)CCNC(=O)c1ccc(CN(C(=O)Nc2ccc(OC(F)(F)F)cc2)C2CCCCC2)cc1 | – | 2700 nM | –
O=C(O)CCNC(=O)c1cccc(CN(CC(c2ccccc2)c2ccccc2)C(=O)c2csc3ccc(Cl)cc23)c1 [Example 9, 3-(3-{[N-(5-Chlorobenzo[b]thiophene-3-carbonyl)-N-(2,2-diphenylethyl)amino]methyl}benzoylamino)propionic acid] | – | – | Glu Bd Assay (I) Effect, 100-Residual binding (%) ([1]; at 500 nM): 56.4% (at 500
COC(C)(C)C1CCC(N(Cc2ccc(C(=O)NCCC(=O)O)cc2)C(=O)Nc2ccc(OC(F)(F)F)cc2)CC1 (centres unmarked) | – | 1280 nM | –
O=C(Nc1nn[nH]n1)c1ccc(CN(C(=O)Nc2ccc(Cl)c(C(F)(F)F)c2)c2ccc(C3CCCCC3)cc2)cc1 [Example 282, 4-[3-(4-Chloro-3-trifluoromethylphenyl)-1-(4-cyclohexylphenyl)ureidomethyl]-N-(2H-tetrazol-5-yl)benzamide] | – | – | IC50 [2]: 3 nM; IC50 (human glucagon receptor; [3]): 21 nM
O=C(O)CCNC(=O)c1ccc(CN(C(=O)Nc2cc(Cl)cc(Cl)c2)C2CCC3(CC2)SCCS3)cc1 | – | 1340 nM | –
O=C(O)CCNC(=O)c1ccc(CN(CC(c2ccccc2)c2ccccc2)C(=O)c2csc3ccc(Cl)cc23)cc1 [Example 1, 3-(4-{[N-(5-Chlorobenzo[b]thiophen-3-carbonyl)-N-(2,2-diphenylethyl)amino]methyl}benzoylamino)propionic acid] | – | 120 nM | –
CC(C)(C)C1CCC(N(Cc2ccc(C(=O)NCCC(=O)O)cc2)C(=O)c2cc3ccccc3s2)CC1 (centres unmarked) [Example 4, 3-(4-{[N-(Benzo[b]thiophen-2-carbonyl)-N-(4-tert-butylcyclohexyl)amino]methyl}benzoylamino)propionic acid] | 28.5% | – | –
CC(C)(C)C1CCC(N(Cc2ccc(C(=O)NCCC(=O)O)cc2)C(=O)Cc2csc3ccccc23)CC1 (centres unmarked) [Example 3, 3-(4-{[N-(2-Benzo[b]thiophen-3-yl-acetyl)-N-(4-tert-butylcyclohexyl)amino]methyl}benzoylamino)propionic acid] | 26.2% | – | –
O=C(O)CCNC(=O)c1ccc(CN(C(=O)Nc2ccc(OC(F)(F)F)cc2)c2ccc(C3CCCCC3)cc2)cc1 [Example 179, 3-{4-[1-(4-Cyclohexylphenyl)-3-(4-trifluoromethoxyphenyl)ureidomethyl]benzoylamino}propionic acid] | – | – | IC50 [2]: 33 nM; IC50 (human glucagon receptor; [3]): 51 nM
O=C(O)CCNC(=O)c1ccc(CN(CCc2ccc(Cl)c(Cl)c2)C(=O)c2csc3ccc(Cl)cc23)cc1 [Example 2, 3-(4-{[N-(5-Chlorobenzo[b]thiophen-3-carbonyl)-N-(3,4-dichlorophenylethyl)amino]methyl}benzoylamino)propionic acid] | – | 1300 nM | –
CC(C)(C)[C@H]1CC[C@H](N(Cc2ccc(C(=O)NCCC(=O)O)cc2)C(=O)Nc2ccc(OC(F)(F)F)cc2)CC1 [Example 92, 3-{4-[1-(4-trans-tert-Butylcyclohexyl)-3-(4-trifluoromethoxyphenyl)ureidomethyl]benzoylamino}propionic acid] | – | – | melting point: 152 to 154 °C; IC50 (human glucagon receptor; Glu Bd Assay (III) IC50 (nM)): 47 nM
CC(C)(C)c1ccc(CN(Cc2ccc(C(=O)NCCC(=O)O)cc2)C(=O)/C=C/c2c(Cl)cccc2Cl)cc1 [Example 6, 3-(4-{[N-[3-(2,6-Dichlorophenyl)acryloyl]-N-(4-tert-butylbenzyl)amino]methyl}benzoylamino)propionic acid] | 29.5% | 1200 nM | –

More lines, main results first:

Glu Bd Assay (I) Effect, 100-Residual binding (%) at 1 μM [1] | IC50 [1] | Structure (SMILES) | further results
– | 78 nM | CC(C)(C)C1CCC(N(Cc2ccc(C(=O)NCCC(=O)O)cc2)C(=O)Nc2cccc(C(F)(F)F)c2)CC1 (centres unmarked) [Example 13, 3-{4-[1-(4-tert-Butylcyclohexyl)-3-(3-trifluoromethylphenyl)ureidomethyl]benzoylamino}propionic acid] | –
– | 42 nM | CCCCC(CC)CN(Cc1ccc(C(=O)NCCC(=O)O)cc1)C(=O)Nc1ccc(-c2ccccc2)cc1 (centres unmarked) [Example 10, 3-{4-[3-Biphenyl-4-yl-1-(2-ethylhexyl)ureidomethyl]benzoylamino}propionic acid] | –
– | 20 nM | CC(C)(C)C1CCC(N(Cc2ccc(C(=O)NCCC(=O)O)cc2)C(=O)Nc2ccc(-c3ccccc3)cc2)CC1 (centres unmarked) [Example 12, 3-{4-[3-Biphenyl-4-yl-1-(4-tert-butylcyclohexyl)ureidomethyl]benzoylamino}propionic acid] | –
30.4% | 845 nM | CC(C)(C)c1ccc(CN(Cc2ccc(C(=O)NCCC(=O)O)cc2)C(=O)c2cc3ccccc3s2)cc1 [Example 7, 3-(4-{[N-(Benzo[b]thiophen-2-carbonyl)-N-(4-tert-butylbenzyl)amino]methyl}benzoylamino)propionic acid] | –
37.8% | 675 nM | O=C(O)CCNC(=O)c1ccc(CN(CCC(c2ccccc2)c2ccccc2)C(=O)c2ccc(Cl)cc2)cc1 [Example 8, 3-(4-{[N-(4-Chlorobenzoyl)-N-(3,3-diphenylpropyl)amino]methyl}benzoylamino)propionic acid] | –
– | 27 nM | CC(C)(C)C1CCC(N(Cc2ccc(C(=O)NCCC(=O)O)cc2)C(=O)Nc2ccc(OC(F)(F)F)cc2)CC1 (centres unmarked) [Example 11, 3-{4-[1-(4-tert-Butylcyclohexyl)-3-(4-trifluoromethoxyphenyl)ureidomethyl]benzoylamino}propionic acid] | –

Reference: patent US6875760B2 (Novo Nordisk A/S, priority 1999, dated 2005)
